Data: PMC12207590, “Substrate Specificity of the Organic Cation Transporters MATE1 and MATE2K and Functional Overlap with OCT1 and OCT2” (Journal of Medicinal Chemistry, 2025)
Read-outs that look alike come from different tables or passages of the source.

Assays:
MATE2K [1] = molecular target: T1, MATE2K (Homo sapiens, UniProt Q86VL8); test: Uptake ratio in MATE2K-overexpressing HEK293 cells vs empty vector (2.5 μM, 1 min, HPLC-MS/MS); format: cell-based
hCMEC [2] = test: TS MDAI hCMEC (Table S2); format: cell-based, human; set-up: scale not given here
MATE1 [3] = molecular target: T2, MATE1 (Homo sapiens, UniProt Q96FL8); test: Uptake ratio in MATE1-overexpressing HEK293 cells vs empty vector (2.5 μM, 1 min, HPLC-MS/MS); format: cell-based
T2 sequence (Q96FL8 1-570): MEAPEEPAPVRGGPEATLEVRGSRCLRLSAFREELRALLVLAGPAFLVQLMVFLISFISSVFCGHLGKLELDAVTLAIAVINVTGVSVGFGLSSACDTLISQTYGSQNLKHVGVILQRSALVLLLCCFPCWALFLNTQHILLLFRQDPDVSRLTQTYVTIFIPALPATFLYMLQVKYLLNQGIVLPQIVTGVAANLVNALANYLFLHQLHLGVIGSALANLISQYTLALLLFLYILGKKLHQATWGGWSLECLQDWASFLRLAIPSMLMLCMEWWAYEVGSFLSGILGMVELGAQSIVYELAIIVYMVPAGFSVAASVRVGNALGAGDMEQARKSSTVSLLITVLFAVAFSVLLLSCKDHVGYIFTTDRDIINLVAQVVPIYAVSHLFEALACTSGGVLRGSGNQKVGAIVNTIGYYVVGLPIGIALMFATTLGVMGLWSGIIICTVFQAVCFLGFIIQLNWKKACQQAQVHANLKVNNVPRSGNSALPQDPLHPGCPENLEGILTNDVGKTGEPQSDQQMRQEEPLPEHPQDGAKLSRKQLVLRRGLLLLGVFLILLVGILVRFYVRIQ

hCMEC [4] = test: TS DPH hCMEC (Table S2); format: cell-based, human; set-up: scale not given here
MATE1 [5] = molecular target: T2, MATE1; test: Concentration-dependent uptake (Michaelis-Menten) via MATE1 in HEK293 cells; conditions: HEK293, 1 min, net uptake; for Km: read-out: MATE1 KM
MATE2K [6] = molecular target: T1, MATE2K; test: Concentration-dependent uptake (Michaelis-Menten) via MATE2K in HEK293 cells; conditions: HEK293, 1 min, net uptake; for Km: read-out: MATE2K KM
[7] = fold uptake over empty vector, 2.5 μM, 1 min
[8] = uptake ratio MATE2K-overexpressing vs empty-vector HEK293 cells, 2.5 μM, 1 min, mean
[9] = uptake ratio MATE1-overexpressing vs empty-vector HEK293 cells, 2.5 μM, 1 min, mean

T1 sequence (Q86VL8 1-566 isoform Q86VL8-3): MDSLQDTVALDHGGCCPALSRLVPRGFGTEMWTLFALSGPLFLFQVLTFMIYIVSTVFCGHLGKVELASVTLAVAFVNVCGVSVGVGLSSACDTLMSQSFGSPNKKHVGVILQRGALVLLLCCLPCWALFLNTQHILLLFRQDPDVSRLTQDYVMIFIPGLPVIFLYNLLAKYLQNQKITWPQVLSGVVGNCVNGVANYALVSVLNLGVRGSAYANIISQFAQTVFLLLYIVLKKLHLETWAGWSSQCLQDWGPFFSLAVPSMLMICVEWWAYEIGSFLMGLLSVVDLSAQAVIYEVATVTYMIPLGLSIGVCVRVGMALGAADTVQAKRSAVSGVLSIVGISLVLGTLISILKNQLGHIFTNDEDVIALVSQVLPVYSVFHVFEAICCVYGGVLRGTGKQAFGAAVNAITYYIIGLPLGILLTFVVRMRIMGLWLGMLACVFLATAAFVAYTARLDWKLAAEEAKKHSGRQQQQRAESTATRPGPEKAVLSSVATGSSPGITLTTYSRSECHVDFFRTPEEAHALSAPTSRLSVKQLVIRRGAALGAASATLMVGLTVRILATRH

Row | Compound | MATE2K ratio (MATE2K [1]; [7]) | TS MDAI hCMEC (hCMEC [2]; Table S2) | MATE1 ratio (MATE1 [3]; [7]) | TS DPH hCMEC (hCMEC [4]; Table S2) | further results
1 | N[C@@H]1CON=C1O [Cycloserine (L), Cycloserine] | 1.10 | 0.76 | 1.19 | 1.34 | 
2 | COc1cccc2c1C(=O)c1c(O)c3c(c(O)c1C2=O)C[C@@](O)(C(C)=O)C[C@@H]3O[C@H]1C[C@H](N)[C@H](O)[C@H](C)O1 [Daunorubicin] |  |  |  |  | MATE2K ratio (MATE2K [1]): 1.01; TS MDAI hCMEC (hCMEC [2]): 1.29; MATE1 ratio (MATE1 [3]): 1.21; TS DPH hCMEC (hCMEC [4]): 0.86
3 | CN(C)CC(c1ccc(O)cc1)C1(O)CCCCC1 (centres unmarked) [Desvenlafaxine] | 1.09 | 0.61 | 1.12 | 0.49 | 
4 | NCCc1ccc(O)c(O)c1 [Dopamine] | 1.97 |  | 39.94 |  | MATE1 Vmax (MATE1 [5]): 10,148 pmol × mg protein^–1 × min^–1; Km (MATE1 [5]): 530 µM; MATE2K Vmax (MATE2K [6]): 1219 pmol × mg protein^–1 × min^–1; Km (MATE2K [6]): 961 µM
5 | CN(C)CCC=C1c2ccccc2COc2ccccc21 [Doxepin] | 1.32 | 0.10 | 1.34 | 0.13 | 
6 | CN1CCC[C@@H]1Cc1c[nH]c2ccc(CCS(=O)(=O)c3ccccc3)cc12 [Eletriptan] | 1.22 | 0.46 | 1.41 | 0.21 | 
7 | Nc1nc(=O)n([C@@H]2CS[C@H](CO)O2)cc1F [Emtricitabine] | 2.88 |  | 3.22 |  | MATE1 Vmax (MATE1 [5]): 4523 pmol × mg protein^–1 × min^–1; Km (MATE1 [5]): 992 µM; MATE2K ratio in this study (MATE2K [1]; Table S1, 2.5 μM, 1 min): 2.88; MATE1 ratio in this study (MATE1 [3]; Table S1, 2.5 μM, 1 min): 3.22; MATE2K Vmax (MATE2K [6]): 2634 pmol × mg protein^–1 × min^–1; Km (MATE2K [6]): 873 µM
8 | CNC[C@H](O)c1ccc(O)c(O)c1 [Epinephrine] |  |  |  |  | MATE1 Vmax (MATE1 [5]): 22,773 pmol × mg protein^–1 × min^–1; Km (MATE1 [5]): 1080 µM; MATE2K Vmax (MATE2K [6]): 2968 pmol × mg protein^–1 × min^–1; Km (MATE2K [6]): 1510 µM
9 | CC[C@@H](CO)NCCN[C@@H](CC)CO [Ethambutol] | 2.78 | 0.95 | 14.14 | 0.98 | MATE2K ratio in this study (MATE2K [1]; Table S1, 2.5 μM, 1 min): 2.78; MATE1 ratio in this study (MATE1 [3]; Table S1, 2.5 μM, 1 min): 14.14; MATE1 ratio (MATE1 [3]; fold uptake over empty vector, 2.5 μM, 1 min, listed as ethambutol): 14
10 | CC(Cc1ccc(O)cc1)NCC(O)c1cc(O)cc(O)c1 (centres unmarked) [Fenoterol] |  |  |  |  | MATE2K ratio (MATE2K [1]): 5.46; MATE2K ratio in this study (MATE2K [1]): 5.46; TS MDAI hCMEC (hCMEC [2]): 1.16; MATE1 ratio (MATE1 [3]): 14.98; MATE1 ratio in this study (MATE1 [3]): 14.98; TS DPH hCMEC (hCMEC [4]): 1.47
11 | CC(C)C(=O)Oc1ccc(CO)cc1[C@H](CCN(C(C)C)C(C)C)c1ccccc1 [Fesoterodine] | 1.02 | 0.41 | 1.09 | 0.40 | 
12 | COc1ccc2c3c1O[C@H]1C[C@@H](O)C=C[C@@]31CCN(C)C2 [Galantamine] |  |  |  | 0.80 | MATE2K ratio (MATE2K [1]): 1.23; TS MDAI hCMEC (hCMEC [2]): 0.98; MATE1 ratio (MATE1 [3]): 1.18
13 | CN1C2CCCC1CC(NC(=O)c1nn(C)c3ccccc13)C2 (centres unmarked) [Granisetron] | 1.25 | 0.28 | 1.22 | 0.43 | 
14 | CC[C@@H](C(N)=O)N1CCCC1=O [Levetiracetam] | 1.28 | 1.19 | 1.19 | 1.17 | 
15 | COc1ccc2c(c1)N(C[C@H](C)CN(C)C)c1ccccc1S2 [Levomepromazine] | 1.19 | 0.33 | 1.21 | 0.31 | 
16 | Cc1cccc(C(C)c2cnc[nH]2)c1C (centres unmarked) [Medetomidine] | 1.21 | 0.96 | 1.11 | 0.79 | 
17 | CC12CC3CC(C)(C1)CC(N)(C3)C2 [Memantine] | 1.18 | 0.14 | 1.03 | 0.24 | MATE2K ratio in this study (MATE2K [1]; Table S1, 2.5 μM, 1 min): 1.18; MATE1 ratio in this study (MATE1 [3]; Table S1, 2.5 μM, 1 min): 1.03
18 | CCC1(c2cccc(O)c2)CCCCN(C)C1 (centres unmarked) [Meptazinol] |  |  |  |  | MATE2K ratio (MATE2K [1]): 1.57; TS MDAI hCMEC (hCMEC [2]): 0.41; MATE1 ratio (MATE1 [3]): 1.21; TS DPH hCMEC (hCMEC [4]): 0.40
19 | C[C@@H](O)[C@H]1C(=O)N2C(C(=O)O)=C(S[C@@H]3CN[C@H](C(=O)N(C)C)C3)[C@H](C)[C@H]12 [Meropenem] | 1.33 | 1.00 | 1.32 | 1.20 | 

Row | Compound | MATE2K ratio (MATE2K [1]; [7]) | TS MDAI hCMEC (hCMEC [2]; Table S2) | MATE1 ratio (MATE1 [3]; [7]) | TS DPH hCMEC (hCMEC [4]; Table S2) | further results
20 | Nc1nc(CC(=O)Nc2ccc(CCNC[C@H](O)c3ccccc3)cc2)cs1 [Mirabegron] | 4.76 | 0.75 | 8.19 | 0.90 | 
21 | CNCC1CCCCC1(O)c1cccc(OC)c1 (centres unmarked) [N-Desmethyltramadol] |  |  |  |  | MATE2K ratio (MATE2K [1]): 1.19; TS MDAI hCMEC (hCMEC [2]): 0.64; MATE1 ratio (MATE1 [3]): 1.12; TS DPH hCMEC (hCMEC [4]): 0.37
22 | C=CCN1CC[C@]23c4c5ccc(O)c4O[C@H]2C(=O)CC[C@@]3(O)[C@H]1C5 [Naloxone] | 1.29 | 0.44 | 1.36 | 0.78 | 
23 | COCCOC(=O)C1=C(C)NC(C)=C(C(=O)OC(C)C)C1c1cccc([N+](=O)[O-])c1 (centres unmarked) [Nimodipine] | 1.20 | 1.25 | 1.33 | 1.28 | 
24 | NC[C@H](O)c1ccc(O)c(O)c1 [Norepinephrine] |  |  |  |  | MATE1 Vmax (MATE1 [5]): 18,720 pmol × mg protein^–1 × min^–1; Km (MATE1 [5]): 1870 µM; MATE2K Vmax (MATE2K [6]): 673 pmol × mg protein^–1 × min^–1; Km (MATE2K [6]): 1150 µM
25 | CCOC(=O)[C@]1(c2ccccc2)CCC=C[C@H]1NC [Nortilidine] |  |  |  |  | MATE2K ratio (MATE2K [1]): 1.42; TS MDAI hCMEC (hCMEC [2]): 0.52; MATE1 ratio (MATE1 [3]): 1.19; TS DPH hCMEC (hCMEC [4]): 0.53
26 | Cc1nccn1CC1CCc2c(c3ccccc3n2C)C1=O (centres unmarked) [Ondansetron] | 1.24 | 0.22 | 1.19 | 0.22 | 
27 | Cn1c(=O)[nH]c2ncn(C)c2c1=O [Paraxanthine] | 0.90 | 0.93 | 1.00 | 1.13 | 
28 | Fc1ccc([C@@H]2CCNC[C@H]2COc2ccc3c(c2)OCO3)cc1 [Paroxetine] | 1.79 | 0.07 | 1.92 | 0.13 | 
29 | CC(C)NCC(O)COc1cccc2[nH]ccc12 (centres unmarked) [Pindolol] | 1.18 | 0.83 | 1.84 | 0.59 | 
30 | NC(=O)C1(N2CCCCC2)CCN(CCCC(=O)c2ccc(F)cc2)CC1 [Pipamperone] | 1.32 | 0.23 | 1.35 | 0.42 | 
31 | CC(C)(C)NCC(O)c1ccc(O)c(CO)n1 (centres unmarked) [Pirbuterol] | 6.00 | 1.31 | 12.66 | 0.95 | 
32 | CCCOC(C(=O)OC1CCN(C)CC1)(c1ccccc1)c1ccccc1 [Propiverine] | 1.07 | 0.44 | 1.20 | 0.33 | MATE2 (MATE2K [1]; [8]): 1.07; MATE1 (MATE1 [3]; [9]): 1.2
33 | NC(=O)c1cnccn1 [Pyrazinamide] | 1.05 | 1.08 | 0.97 | 0.95 | MATE2 (MATE2K [1]; [8]): 1.05; MATE1 (MATE1 [3]; [9]): 0.97
34 | OCCOCCN1CCN(C2=Nc3ccccc3Sc3ccccc32)CC1 [Quetiapine] | 1.28 | 0.45 | 1.10 | 0.49 | MATE2 (MATE2K [1]; [8]): 1.28; MATE1 (MATE1 [3]; [9]): 1.1
35 | Cc1nc2n(c(=O)c1CCN1CCC(c3noc4cc(F)ccc34)CC1)CCCC2 [Risperidone] |  |  |  |  | MATE2 (MATE2K [1]): 1.37; MATE2K ratio (MATE2K [1]): 1.37; TS MDAI hCMEC (hCMEC [2]): 0.46; MATE1 (MATE1 [3]): 1.07; MATE1 ratio (MATE1 [3]): 1.07; TS DPH hCMEC (hCMEC [4]): 0.53
36 | CCCN1CCCC[C@H]1C(=O)Nc1c(C)cccc1C [Ropivacaine] | 1.49 | 0.37 | 1.22 | 0.15 | MATE2 (MATE2K [1]; [8]): 1.49; MATE1 (MATE1 [3]; [9]): 1.22
37 | O=C(O[C@H]1CN2CCC1CC2)N1CCc2ccccc2[C@@H]1c1ccccc1 [Solifenacin] | 1.22 | 0.44 | 1.28 | 0.27 | MATE2 (MATE2K [1]; [8]): 1.22; MATE1 (MATE1 [3]; [9]): 1.28
